From ChEMBL document CHEMBL5537179, “Combination Therapy and Dual-Target Inhibitors Based on LSD1: New Emerging Tools in Cancer Therapy” (J Med Chem, 2024)
Blank lines part the entries; values can stand above or below the compound they belong to.

What was measured:
DCN1-like protein 1 = DCN1-like protein 1 (Homo sapiens, UniProt Q96GG9); assay: Inhibition of DCN1 (unknown origin) by TR-FRET analysis
[1] = biological target: T1, Lysine-specific histone demethylase 1A (Homo sapiens, UniProt O60341); assay: Inhibition of LSD1 (unknown origin) at 10 uM relative to control
[2] = Half life in human plasma; format: ADME, cell-free
[3] = Oral bioavailability in mouse; format: ADME, organism-based; conditions: in vivo
[4] = Half life in CD-1 mouse at 2 mg/kg, iv; format: ADME, organism-based; conditions: in vivo
[5] = Cmax in CD-1 mouse at 2 mg/kg, iv; format: ADME, organism-based; conditions: in vivo
[6] = biological target: T1, Lysine-specific histone demethylase 1A; assay: Inhibition of human LSD1 by luminescence assay
[7] = Tmax in human at 5 mg/kg, po; format: ADME, organism-based; conditions: in vivo
[8] = Cmax in human at 5 mg/kg, po; format: ADME, organism-based; conditions: in vivo
MV4-11 = assay: cells; conditions: Homo sapiens, MV4-11, 72 h
Kasumi 1 = assay: cells; conditions: Homo sapiens, Kasumi 1, 168 h
in vitro = conditions: human, THP-1 cells
Leukemia cell = assay: Antitumor activity against human Leukemia cells assessed as reduction in cell growth incubated for 72 hrs by MTT assay; format: functional, cell-based
[9] = Half life in BALB/c mouse plasma at 5 mg/kg, ip measured after 24 hrs by LC-MS/MS analysis; format: ADME, organism-based
[10] = Oral bioavailability in BALB/c mouse at 5 mg/kg measured after 24 hrs by LC-MS/MS analysis; format: ADME, organism-based; conditions: in vivo
Tubulin = assay: Inhibition of tubulin polymerization (unknown origin) by fluorescence based assay; format: protein-complex assay, Homo sapiens
[11] = biological target: T1, Lysine-specific histone demethylase 1A; assay: Inhibition of human LSD1 expressed in Escherichia coli Rosetta (DE3) cells using H3K4me2 peptide as substrate and measured after 1 hr by fluorescence based analysis
Spermine oxidase = Spermine oxidase (Homo sapiens, UniProt Q9NWM0); assay: Inhibition of SMOX (unknown origin) using spermine as substrate preincubated for 1 hr followed by substrate addition and measured after 20 mins by luminometer analysis
Histone deacetylase 1 [12] = biological target: T2, Histone deacetylase 1 (Homo sapiens, UniProt Q13547); assay: Inhibition of HDAC1 (unknown origin)
[13] = biological target: T1, Lysine-specific histone demethylase 1A
Histone deacetylase 1 [14] = biological target: T2, Histone deacetylase 1; assay: Inhibition of human recombinant HDAC1 using fluorogenic HDAC substrate preincubated for 30 mins followed by substrate addition and measured after 15 mins by fluorescence based assay
[15] = biological target: Lysine-specific demethylase 6A (Homo sapiens, UniProt O15550); assay: Inhibition of human UTX using Biotin-KAPRKQLATKAARK(me3)SAPATGG as substrate by MALDI-TOF analysis
[16] = biological target: T3, Bromodomain-containing protein 4 (Homo sapiens, UniProt O60885); assay: Inhibition of human BRD4 BD1 by TR-FRET assay
[17] = biological target: T3, Bromodomain-containing protein 4; assay: Inhibition of human BRD4 BD2 by TR-FRET assay

T2 sequence (Q13547 whole entry): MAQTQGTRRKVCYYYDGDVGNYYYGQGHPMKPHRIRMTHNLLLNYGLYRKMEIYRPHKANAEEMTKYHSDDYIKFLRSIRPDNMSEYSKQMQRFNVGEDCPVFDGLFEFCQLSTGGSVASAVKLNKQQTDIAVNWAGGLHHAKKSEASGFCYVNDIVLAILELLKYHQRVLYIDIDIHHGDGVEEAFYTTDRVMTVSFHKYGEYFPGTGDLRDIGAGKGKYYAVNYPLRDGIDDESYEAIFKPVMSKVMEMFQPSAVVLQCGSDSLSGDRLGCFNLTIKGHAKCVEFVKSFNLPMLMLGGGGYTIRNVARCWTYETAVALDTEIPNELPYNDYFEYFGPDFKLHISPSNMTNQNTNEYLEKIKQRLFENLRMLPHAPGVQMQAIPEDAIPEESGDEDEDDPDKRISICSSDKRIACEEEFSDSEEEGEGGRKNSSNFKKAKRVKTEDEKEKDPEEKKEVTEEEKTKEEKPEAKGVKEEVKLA
Chain of Lysine-specific demethylase 6A (O15550 whole entry): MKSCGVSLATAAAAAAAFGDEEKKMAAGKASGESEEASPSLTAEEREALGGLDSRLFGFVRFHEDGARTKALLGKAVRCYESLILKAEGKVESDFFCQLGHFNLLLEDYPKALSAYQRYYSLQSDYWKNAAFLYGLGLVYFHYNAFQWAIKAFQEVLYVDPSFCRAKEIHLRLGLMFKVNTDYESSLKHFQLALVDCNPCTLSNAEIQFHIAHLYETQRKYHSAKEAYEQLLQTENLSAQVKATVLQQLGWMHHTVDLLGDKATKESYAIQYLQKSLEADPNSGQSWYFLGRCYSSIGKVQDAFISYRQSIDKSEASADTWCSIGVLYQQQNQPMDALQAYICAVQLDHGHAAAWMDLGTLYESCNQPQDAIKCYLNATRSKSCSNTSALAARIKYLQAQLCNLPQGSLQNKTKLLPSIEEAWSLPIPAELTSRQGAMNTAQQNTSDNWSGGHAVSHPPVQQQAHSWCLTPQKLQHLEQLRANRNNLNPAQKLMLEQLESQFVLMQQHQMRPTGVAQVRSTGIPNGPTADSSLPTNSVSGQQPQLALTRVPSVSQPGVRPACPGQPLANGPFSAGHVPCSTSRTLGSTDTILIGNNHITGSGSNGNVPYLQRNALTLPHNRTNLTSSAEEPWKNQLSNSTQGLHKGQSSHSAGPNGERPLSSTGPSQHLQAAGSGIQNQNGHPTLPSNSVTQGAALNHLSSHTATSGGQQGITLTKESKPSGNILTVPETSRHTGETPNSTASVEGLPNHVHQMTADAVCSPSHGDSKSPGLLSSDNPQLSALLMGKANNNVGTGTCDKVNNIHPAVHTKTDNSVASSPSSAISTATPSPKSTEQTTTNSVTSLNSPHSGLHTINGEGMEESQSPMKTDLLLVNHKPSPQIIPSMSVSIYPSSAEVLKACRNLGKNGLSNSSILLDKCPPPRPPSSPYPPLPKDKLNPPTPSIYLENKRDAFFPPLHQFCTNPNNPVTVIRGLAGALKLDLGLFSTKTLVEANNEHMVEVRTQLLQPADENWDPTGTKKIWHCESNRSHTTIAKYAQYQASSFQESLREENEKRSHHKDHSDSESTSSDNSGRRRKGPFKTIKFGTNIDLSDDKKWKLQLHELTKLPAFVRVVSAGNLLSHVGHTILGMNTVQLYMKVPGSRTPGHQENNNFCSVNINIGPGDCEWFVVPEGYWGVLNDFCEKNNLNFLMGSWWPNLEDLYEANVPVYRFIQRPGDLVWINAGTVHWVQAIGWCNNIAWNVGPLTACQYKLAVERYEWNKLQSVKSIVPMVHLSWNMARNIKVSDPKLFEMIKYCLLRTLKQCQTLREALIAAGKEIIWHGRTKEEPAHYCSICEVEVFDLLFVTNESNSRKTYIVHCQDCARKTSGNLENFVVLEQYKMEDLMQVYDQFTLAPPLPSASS
Chain of DCN1-like protein 1 (Q96GG9 whole entry): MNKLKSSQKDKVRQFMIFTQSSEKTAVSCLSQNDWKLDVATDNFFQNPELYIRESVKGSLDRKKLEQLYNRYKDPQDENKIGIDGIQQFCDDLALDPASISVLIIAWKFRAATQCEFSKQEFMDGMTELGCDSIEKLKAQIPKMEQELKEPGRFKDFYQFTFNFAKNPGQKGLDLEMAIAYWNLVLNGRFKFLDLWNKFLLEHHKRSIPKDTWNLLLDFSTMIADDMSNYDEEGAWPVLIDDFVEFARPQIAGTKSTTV
Chain of Spermine oxidase (Q9NWM0 whole entry): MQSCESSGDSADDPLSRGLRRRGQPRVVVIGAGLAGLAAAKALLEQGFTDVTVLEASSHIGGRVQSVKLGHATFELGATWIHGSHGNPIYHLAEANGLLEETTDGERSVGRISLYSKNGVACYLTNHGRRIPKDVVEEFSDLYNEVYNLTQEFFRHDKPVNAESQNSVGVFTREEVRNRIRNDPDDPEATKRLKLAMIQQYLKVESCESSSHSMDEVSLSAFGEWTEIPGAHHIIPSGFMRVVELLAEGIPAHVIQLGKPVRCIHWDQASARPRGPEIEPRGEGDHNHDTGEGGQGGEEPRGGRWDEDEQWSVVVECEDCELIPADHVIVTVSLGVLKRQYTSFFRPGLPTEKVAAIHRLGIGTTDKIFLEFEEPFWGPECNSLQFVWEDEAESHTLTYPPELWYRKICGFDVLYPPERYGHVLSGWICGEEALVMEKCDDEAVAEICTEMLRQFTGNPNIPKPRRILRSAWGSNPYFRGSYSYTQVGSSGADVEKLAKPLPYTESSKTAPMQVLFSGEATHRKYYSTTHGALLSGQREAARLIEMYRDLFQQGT

SMILES: CN(C)CCn1nnnc1Sc1ccnc2nc(SCc3ccc(Br)cc3)nn12
IC50 (DCN1-like protein 1): 14.8 nM

SMILES: O=C(O)c1ccc(CN2CCC(CN[C@@H]3C[C@H]3c3ccccc3)CC2)cc1 [GSK2879552]
bioavailability [3]: 59.2%
half-life [4]: 114 min
Cmax [5]: 720 ng/mL

SMILES: COc1ccc(-c2c(-c3ccc(C#N)c(F)c3)nc(N3CCC(N)CC3)n(C)c2=O)cc1F.O=S(=O)(O)c1ccccc1 [PULRODEMSTAT BESILATE]
Tmax [7]: 4 h
Cmax [8]: 19 ng/mL
IC50 (MV4-11): 1400 nM
IC50 (Kasumi 1): 2 nM
IC50 at 72 h (in vitro): 7 nM

SMILES: N[C@H]1CC[C@H](N[C@@H]2C[C@H]2c2ccccc2)CC1
EC50 (Leukemia cell): 0.1 nM
half-life [9]: 600 min
bioavailability [10]: 77%

SMILES: O=S1(=O)CCCN(S(=O)(=O)c2ccc(-c3cnc(C4CC4)o3)cc2)c2ccccc21
IC50 (Tubulin): 3.1 µM
IC50 [11]: 2800 nM

SMILES: NC1CC1c1ccc(NC(=O)CCCc2ccccc2)cc1 (stereo not given)
IC50 (Histone deacetylase 1 [14]): > 30 µM

SMILES: C/C(=N\NC(=O)c1cccc(S(=O)(=O)N2CCOCC2)c1)c1cc(Cl)ccc1O
IC50 [16]: 77 nM
IC50 [17]: 33 nM

Other lines, results leading:

inhibition [1]: 52.1%
SMILES: Nc1n[nH]c(NCc2ccccc2Oc2ccc(-c3ccccc3)cc2)n1

half-life [2]: 1320 min
SMILES: Nc1nnc(CN[C@@H]2C[C@H]2c2ccc(OCc3ccccc3)cc2)o1

IC50 [6]: 50 nM
SMILES: COC(=O)/C=C/c1ccc(CN(C(=O)OC(C)(C)C)C2CC2c2ccc(F)cc2)cc1 (stereo not given)

IC50 (Spermine oxidase): 148 µM
SMILES: C=C/C=C/c1cccc(Oc2cccc(Cl)c2CNc2nc(N)n[nH]2)c1/C=C/C=C

IC50 (Histone deacetylase 1 [12]): 300 nM
IC50 [13]: 300 nM
SMILES: Nc1ccccc1NC(=O)c1ccc(CCCC(=O)Nc2ccc(C3CC3N)cc2)cc1 (stereo not given)

IC50 [15]: 27 µM
IC50 [13]: < 1000 nM
SMILES: NC1CC1c1ccc(NC(=O)c2ccc(O)c3ncccc23)cc1 (stereo not given)
